Results reported in patent US20230148599A1, “FUNGICIDAL MIXTURES CONTAINING PYRAZOLE DERIVATIVES” (FMC Corporation, priority 2020, published 2023).

Key:
Format in all cases: in vivo
Conditions in all cases: 50 ppm, 100 = 100% disease control, 0 = no control
[1] = test system: Septoria tritici; assay: Test A: wheat leaf blotch, preventive spray on wheat seedlings
How it was run: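 Wheat seedlings sprayed to run-off with compound suspended in acetone/water with 250 ppm PEG400 surfactant, inoculated next day with Septoria tritici spores. Held 48 h saturated at 24 °C, then 17 days at 20 °C; disease rated 0–100% control relative to controls.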

[2] = test system: Puccinia recondita f. sp. tritici; assay: Test B: wheat leaf rust, preventive spray on wheat seedlings
How it was run: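 Wheat seedlings were sprayed to run-off with compound suspended at ppm concentrations in acetone/water containing 250 ppm PEG400. The next day they were inoculated with Puccinia recondita f. sp. tritici spores, held saturated at 20 °C for 24 h, then kept 7 days at 20 °C. Disease control was rated 0–100% relative to untreated controls.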

[3] = test system: Blumeria graminis f. sp. tritici; assay: Test C: wheat powdery mildew, preventive spray on wheat seedlings
How it was run: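 Seedlings were sprayed to run-off with compound suspended (ppm) in 50/50 acetone–water containing 250 ppm PEG400, then spore-dust inoculated the following day. After 8 days at 20° C, disease control was rated visually from 0 to 100 against controls.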

[4] = test system: Phakopsora pachyrhizi; assay: Test D: Asian soybean rust, preventive spray on soybean seedlings
How it was run: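 Compounds in acetone/water (50/50) with 250 ppm PEG400, dosed in ppm, sprayed to run-off on soybean seedlings; inoculated with P. pachyrhizi spores next day. Held 24 h at 22 °C in saturated air, then 8 days at 22 °C; visual rating of disease control, 0–100, relative to untreated controls.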

[5] = test system: Botrytis cinerea; assay: Test E: tomato Botrytis, preventive spray on tomato seedlings
How it was run: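 Compound suspended in 50/50 acetone/water with 250 ppm PEG400 surfactant and sprayed to run-off on tomato seedlings; Botrytis cinerea spores applied the next day. Incubation 48 h at 20° C in saturated atmosphere, then 3 days at 24° C. Visual rating 0–100% disease control relative to controls.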

[6] = test system: Alternaria solani; assay: Test F: tomato early blight, preventive spray on tomato seedlings
How it was run: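 Tomato seedlings were sprayed to run-off with compound suspended in acetone/water (50/50) with 250 ppm PEG400 and inoculated with Alternaria solani spores the next day. Plants were held 48 h at 27 °C in saturated humidity, then 3 days at 20 °C. Disease control was rated visually from 0 to 100 against untreated controls.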

Compound	Test A disease control rating [1] [%]	Test B disease control rating [2] [%]	Test C disease control rating [3] [%]	Test D disease control rating [4] [%]	Test E disease control rating [5] [%]	Test F disease control rating [6] [%]
Cc1nn(C)c(Nc2c(Cl)cc(F)cc2[N+](=O)[O-])c1-c1ccc(Cl)cc1Cl [compound 10]	100	99	48	0	68	9
Cc1cccc([N+](=O)[O-])c1Nc1c(-c2ccc(F)cc2Br)c(C)nn1C [compound 42]	100	100	96	0	91	0
Cc1nn(C)c(Nc2c(F)cccc2[N+](=O)[O-])c1-c1c(F)cccc1Cl [compound 25]	100	100	99	98	100	98
Cc1nn(C)c(Nc2ccccc2[N+](=O)[O-])c1-c1ccc(Cl)cc1Cl [compound 189]	99	68	57	0	99	0
Cc1nn(C)c(Nc2c(F)cc(F)cc2[N+](=O)[O-])c1-c1ccc(F)cc1F [compound 58]	100	100	99	36	99	99
COc1ccc(-c2c(C)nn(C)c2Nc2c(Cl)cc(Cl)cc2[N+](=O)[O-])c(Cl)c1 [compound 65]	94	89	56	66	16	46
